Results as given in PubChem BioAssay AID1918957 (Molecular Pharmacology Branch, DTP, NCI, 2023).
pIC50: −log10 of the molar value.

Tested on: NCI-H1876 complex spheroid viability
Test: Anticancer human tumor NCI-H1876 cell line growth inhibition [LSD1];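 further: spheroids exposed to compounds for one week before readout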;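 on viability, T/C: 100% = DMSO vehicle-treated spheroids so lower means fewer viable cells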
Conditions: for pIC50: curve of first compound; for viability, T/C: stronger effect = lower value
How it was run: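 Drug combinations with the LSD1 inhibitor iadademstat tested on tumor cells co-cultured as spheroids with endothelial cells and mesenchymal stem cells. Concentrations descended in half-log increments from clinical Cmax or 10 microM.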

[1] = second compound 0.1 µM, first compound 0.00316 µM
[2] = second compound 0.1 µM, first compound 0.01 µM
[3] = second compound 0.1 µM, first compound 0.0316 µM
[4] = second compound 0.1 µM, first compound 0.1 µM
[5] = second compound 0.316 µM, first compound 0.00316 µM
[6] = second compound 0.316 µM, first compound 0.01 µM
[7] = second compound 0.316 µM, first compound 0.0316 µM
[8] = second compound 0.316 µM, first compound 0.1 µM
[9] = second compound 1 µM, first compound 0.00316 µM
[10] = second compound 1 µM, first compound 0.01 µM
[11] = second compound 1 µM, first compound 0.0316 µM
[12] = second compound 1 µM, first compound 0.1 µM
[13] = second compound 3.16 µM, first compound 0.00316 µM
[14] = second compound 3.16 µM, first compound 0.01 µM
[15] = second compound 3.16 µM, first compound 0.0316 µM
[16] = second compound 3.16 µM, first compound 0.1 µM
[17] = second compound 10 µM, first compound 0.00316 µM
[18] = second compound 10 µM, first compound 0.01 µM
[19] = second compound 10 µM, first compound 0.0316 µM
[20] = second compound 10 µM, first compound 0.1 µM

`COc1cc(Nc2ncc3c(n2)-c2ccc(Cl)cc2C(c2c(F)cccc2OC)=NC3)ccc1C(=O)O` + NC1CCC(NC2CC2c2ccccc2)CC1 was tested, and the pIC50 (second compound 0.1 µM) was 7.48, the pIC50 (second compound 0.316 µM) was 7.74 and the pIC50 (second compound 1 µM) was 7.46. The pIC50 (second compound 3.16 µM) was 7.70, the pIC50 (second compound 10 µM) was 7.76 and the viability, T/C [1] was 67.7%. For the same molecule, the viability, T/C [2] was 59.1%, the viability, T/C [3] was 51.7% and the viability, T/C [4] was 39.5%. The viability, T/C (second compound 0.1 µM, first compound 0.316 µM) was 31.7%, the viability, T/C (second compound 0.1 µM, first compound 1 µM) was 25.7% and the viability, T/C [5] was 64.9%. It also gave a viability, T/C [6] of 52.9%, a viability, T/C [7] of 45.6% and a viability, T/C [8] of 37.6%. For the same molecule, the viability, T/C (second compound 0.316 µM, first compound 0.316 µM) was 35%, the viability, T/C (second compound 0.316 µM, first compound 1 µM) was 23.7% and the viability, T/C [9] was 62.3%. The viability, T/C [10] was 57.5%, the viability, T/C [11] was 51.8% and the viability, T/C [12] was 40%. The viability, T/C (second compound 1 µM, first compound 0.316 µM) was 32.3%, the viability, T/C (second compound 1 µM, first compound 1 µM) was 19.9% and the viability, T/C [13] was 62.9%. For the same molecule, the viability, T/C [14] was 52.1%, the viability, T/C [15] was 47.2% and the viability, T/C [16] was 41.2%. It also gave a viability, T/C (second compound 3.16 µM, first compound 0.316 µM) of 28.6%, a viability, T/C (second compound 3.16 µM, first compound 1 µM) of 22.1% and a viability, T/C [17] of 60.9%. It also gave a viability, T/C [18] of 52.7%, a viability, T/C [19] of 50.3% and a viability, T/C [20] of 33.2%. It also gave a viability, T/C (second compound 10 µM, first compound 0.316 µM) of 31.5% and a viability, T/C (second compound 10 µM, first compound 1 µM) of 22.5%.

For `Cn1ncnc1C1c2n[nH]c(=O)c3cc(F)cc(c23)NC1c1ccc(F)cc1` (stereo not given) + NC1CCC(NC2CC2c2ccccc2)CC1, the pIC50 (second compound 0.1 µM) was less than 7.00, the pIC50 (second compound 0.316 µM) was less than 7.00 and the pIC50 (second compound 1 µM) was less than 7.00. The pIC50 (second compound 3.16 µM) was less than 7.00, the pIC50 (second compound 10 µM) was less than 7.00 and the viability, T/C (second compound 0.1 µM, first compound 0.000316 µM) was 99.3%. It also gave a viability, T/C (second compound 0.1 µM, first compound 0.001 µM) of 107%, a viability, T/C [1] of 96.6% and a viability, T/C [2] of 98.3%. The viability, T/C [3] was 91.7%, the viability, T/C [4] was 92% and the viability, T/C (second compound 0.316 µM, first compound 0.000316 µM) was 98%. The viability, T/C (second compound 0.316 µM, first compound 0.001 µM) was 114%, the viability, T/C [5] was 97.3% and the viability, T/C [6] was 103%. It also gave a viability, T/C [7] of 104%, a viability, T/C [8] of 82.8% and a viability, T/C (second compound 1 µM, first compound 0.000316 µM) of 107%. It also gave a viability, T/C (second compound 1 µM, first compound 0.001 µM) of 102%, a viability, T/C [9] of 102% and a viability, T/C [10] of 98%. For the same molecule, the viability, T/C [11] was 95.8%, the viability, T/C [12] was 87.9% and the viability, T/C (second compound 3.16 µM, first compound 0.000316 µM) was 115%. The viability, T/C (second compound 3.16 µM, first compound 0.001 µM) was 117%, the viability, T/C [13] was 104% and the viability, T/C [14] was 100%. For the same molecule, the viability, T/C [15] was 88.1%, the viability, T/C [16] was 104% and the viability, T/C (second compound 10 µM, first compound 0.000316 µM) was 104%. It also gave a viability, T/C (second compound 10 µM, first compound 0.001 µM) of 130%, a viability, T/C [17] of 114% and a viability, T/C [18] of 95%. It also gave a viability, T/C [19] of 100% and a viability, T/C [20] of 89.7%.

`NS(=O)(=O)OCC1CC(n2ccc3c(NC4CCc5ccccc54)ncnc32)CC1O` (stereo not given) + NC1CCC(NC2CC2c2ccccc2)CC1 was tested, and the pIC50 (second compound 0.1 µM) was 7.00, the pIC50 (second compound 0.316 µM) was 7.11 and the pIC50 (second compound 1 µM) was 7.14. The pIC50 (second compound 3.16 µM) was 7.16, the pIC50 (second compound 10 µM) was 7.08 and the viability, T/C (second compound 0.1 µM, first compound 0.00949 µM) was 78.2%. The viability, T/C (second compound 0.1 µM, first compound 0.03 µM) was 60.1%, the viability, T/C (second compound 0.1 µM, first compound 0.0949 µM) was 56.1% and the viability, T/C (second compound 0.1 µM, first compound 0.3 µM) was 36.6%. For the same molecule, the viability, T/C (second compound 0.1 µM, first compound 0.949 µM) was 36.1%, the viability, T/C (second compound 0.1 µM, first compound 3 µM) was 31.7% and the viability, T/C (second compound 0.316 µM, first compound 0.00949 µM) was 75.3%. For the same molecule, the viability, T/C (second compound 0.316 µM, first compound 0.03 µM) was 60.5%, the viability, T/C (second compound 0.316 µM, first compound 0.0949 µM) was 47.2% and the viability, T/C (second compound 0.316 µM, first compound 0.3 µM) was 39.4%. For the same molecule, the viability, T/C (second compound 0.316 µM, first compound 0.949 µM) was 37.9%, the viability, T/C (second compound 0.316 µM, first compound 3 µM) was 31.4% and the viability, T/C (second compound 1 µM, first compound 0.00949 µM) was 83.5%. It also gave a viability, T/C (second compound 1 µM, first compound 0.03 µM) of 62.3%, a viability, T/C (second compound 1 µM, first compound 0.0949 µM) of 46.8% and a viability, T/C (second compound 1 µM, first compound 0.3 µM) of 35.1%. For the same molecule, the viability, T/C (second compound 1 µM, first compound 0.949 µM) was 34.2%, the viability, T/C (second compound 1 µM, first compound 3 µM) was 30.1% and the viability, T/C (second compound 3.16 µM, first compound 0.00949 µM) was 70.9%. For the same molecule, the viability, T/C (second compound 3.16 µM, first compound 0.03 µM) was 57.9%, the viability, T/C (second compound 3.16 µM, first compound 0.0949 µM) was 48.4% and the viability, T/C (second compound 3.16 µM, first compound 0.3 µM) was 35.9%. For the same molecule, the viability, T/C (second compound 3.16 µM, first compound 0.949 µM) was 33.6%, the viability, T/C (second compound 3.16 µM, first compound 3 µM) was 28.8% and the viability, T/C (second compound 10 µM, first compound 0.00949 µM) was 77.3%. The viability, T/C (second compound 10 µM, first compound 0.03 µM) was 63%, the viability, T/C (second compound 10 µM, first compound 0.0949 µM) was 47.6% and the viability, T/C (second compound 10 µM, first compound 0.3 µM) was 37%. For the same molecule, the viability, T/C (second compound 10 µM, first compound 0.949 µM) was 32.3% and the viability, T/C (second compound 10 µM, first compound 3 µM) was 24.4%.
